“Also recorded” adds a separate entry of the source.
Key:
SUMO E1 ligase protein = target: T1, SUMO E1 ligase protein (Homo sapiens, UniProt Q9UBE0+Q9UBT2); experiment: In vitro SUMO E1 ATP hydrolysis assay for SUMO E1 ligase activity (AMP produced, luciferase luminescence); format: biochemical; conditions: racemic mixtures; for SUMO E1 activity (luminescence), ranking among the 11 compounds: 1 μM concentration; for dose-dependent effect in SUMO E1 assays compared with control compound N106: luminescence, FIG. 4B
T1 sequence (Q9UBE0 1-346): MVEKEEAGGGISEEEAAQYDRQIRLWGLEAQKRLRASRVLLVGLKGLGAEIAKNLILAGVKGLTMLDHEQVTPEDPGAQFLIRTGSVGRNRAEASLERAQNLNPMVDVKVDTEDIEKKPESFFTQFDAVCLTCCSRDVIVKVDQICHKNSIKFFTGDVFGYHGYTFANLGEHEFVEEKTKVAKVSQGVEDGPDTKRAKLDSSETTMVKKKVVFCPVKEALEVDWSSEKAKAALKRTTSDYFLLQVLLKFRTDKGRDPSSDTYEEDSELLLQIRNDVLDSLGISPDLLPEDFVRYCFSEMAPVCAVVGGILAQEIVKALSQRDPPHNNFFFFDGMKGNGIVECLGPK
T1 sequence (Q9UBT2 1-640): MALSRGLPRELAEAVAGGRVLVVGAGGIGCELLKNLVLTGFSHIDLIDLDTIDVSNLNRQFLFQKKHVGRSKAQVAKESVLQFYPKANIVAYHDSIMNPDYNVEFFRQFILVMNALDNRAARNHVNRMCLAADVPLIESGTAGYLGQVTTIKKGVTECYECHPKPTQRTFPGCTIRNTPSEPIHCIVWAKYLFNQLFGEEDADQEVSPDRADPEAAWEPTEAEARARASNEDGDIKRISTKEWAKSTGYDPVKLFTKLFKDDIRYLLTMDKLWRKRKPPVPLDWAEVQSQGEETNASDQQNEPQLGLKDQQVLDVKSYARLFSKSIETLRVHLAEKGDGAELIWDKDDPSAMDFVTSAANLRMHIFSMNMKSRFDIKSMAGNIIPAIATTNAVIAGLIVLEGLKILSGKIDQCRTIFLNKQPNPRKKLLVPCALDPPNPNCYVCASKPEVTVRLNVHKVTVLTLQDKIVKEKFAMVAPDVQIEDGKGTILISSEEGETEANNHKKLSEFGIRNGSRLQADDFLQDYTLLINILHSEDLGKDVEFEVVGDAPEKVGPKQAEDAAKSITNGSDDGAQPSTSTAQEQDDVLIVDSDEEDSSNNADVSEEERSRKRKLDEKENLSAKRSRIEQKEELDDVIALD
Description: (§1) To investigate the effects of carboxamide compounds as SUMOylation activators, the compounds were subjected to an ATP-based assay of SUMO E1 ligase activity. The racemic mixture of each compound was first tested with the SUMO E1 ligase assay to test for SUMO activation activity. Compounds with no SUMO E1 ligase activity were excluded. For compounds with recorded SUMO E1 ligase activity, their four pure stereoisomers were tested for SUMO E1 ligase activity by measuring the adenosine monophosphate (AMP) produced from the E1 ligase reaction as described below. Each pure stereoisomer was also subjected to functional analysis in engineered cardiac tissues (FIG. 3A). The pure stereoisomers of compounds with SUMO E1 ligase activity were administered to human ventricular cardiac tissue strips that had been subjected to a maturation protocol (see below). […] Stereoisomers that could induce SERCA2a SUMOylation were further tested for their inotropic effects, in hvCTS models of cardiomyopathy and heart failure, by fabrication of hvCTS with cardiomyocytes derived from human induced pluripotent stem cells (i.e., hiPSCs) of patients with cardiomyopathy.
Stereoisomers of the test compounds were incubated with SUMO E1 ligase protein and ATP. E1 ligase activation by the test compound was determined by measuring the AMP produced during the enzymatic reaction after removal of the remaining ATP by ATP adenyl cyclase and converting AMP to ADP by polyphosphate-AMP phosphotransferase. The converted ADP was further converted to ATP using […] and detected through luciferase reaction.

[1] = system: human ventricular cardiac tissue strips (hvCTS); experiment: Contractility of matured human ventricular cardiac tissue strips (hvCTS), twitch force from post deflection; format: cell-based; conditions: for effect on developed force: matured hvCTS with positive force frequency relationship, day 24; for effect on developed force / effect on relaxation time: 1.5 Hz, 10 minutes after each dose
Description: FIG. 5 discloses the dose-dependent effects of stereoisomers of Compounds 6 on developed force in human cardiac tissue strips that were subjected to maturation protocol (see description below in the section entitled “Maturation of hvCTS”) with maturation media and electrical stimulation of 0.5 Hz from day 7-10, 1.0 Hz from day 10-13, 1.5 Hz from day 13-15, 2.0 Hz from day 16-19, 2.5 Hz from day 19-22 and 3.0 from day 22-24. Contractile data were collected at day 24 post-hvCTS fabrication. Developed forces were measured at 1.5 Hz, 10 minutes after administration of each dose of each stereoisomer. Only hvCTSs with positive force frequency relationships (+FFRs) were tested.
Contractile data were collected at day 24 post-hvCTS fabrication. Developed forces were measured at 1.5 Hz, 10 minutes after administration of each dose of the stereoisomer. Only hvCTSs with positive force frequency relationships (+FFRs) were tested.
as §1
The effects of compounds on cardiac muscle function as evaluated by the Novoheart hvCTS assay are derived from tracings of twitch force versus time. The twitch force may be calculated from measurements of end-post deflection based on a published beam-bending equation as previously described.^29, 30 The twitch force tracings are then analyzed from each “heartbeat” of the tissue, and averaged over multiple beats to extract metrics related to the beat rate frequency and beat rate variability, the passive and active tissue forces, and the contraction and relaxation kinetics, as detailed previously in the field^29-32, and briefly described as follows:
For each beat, the “passive (or diastolic) force” is the minimum value of the twitch force; the “active (or systolic) force” is the maximum value of the twitch force; and the “contractile (or developed) force” is the difference between the systolic and diastolic forces.
“Contractile kinetics”, in some aspects, are analyzed by examining the twitch force tracing during the increase from the diastolic minimum to the systolic maximum portion of the curve, and these can include the duration of rise time from diastolic to systolic force and related metrics (e.g. duration of rise time from 5% maximum to 95% maximum force, and the like), the area under the curve of rise time from minimum to maximum force, the maximum rate of change of force versus time during contraction (max+dF/dt), and other related metrics. […]

[2] = cited from earlier work

In the case of `CC(NC(=O)C1CC(=O)N(c2ccc(C(=O)c3ccccc3)cc2)C1)c1cnn2ccccc12` (mixture of isomers) [Compound 6, 1-(4-benzoylphenyl)-5-oxo-N-(1-(pyrazolo[1,5-a]pyridin-3-yl)ethyl) pyrrolidine-3-carboxamide], the “SUMO E1 activity (luminescence), ranking among the 11 compounds” value (“SUMO E1 activity (luminescence)” for short) (SUMO E1 ligase protein) is reported as “largest effects; also recorded: highest” and the “dose-dependent effect in SUMO E1 assays compared with control compound N106” value (SUMO E1 ligase protein) is reported as “larger effects than the control compound N106”.
With `CC(NC(=O)C1CC(=O)N(c2cccnc2)C1)c1cnn2ccccc12` (mixture of isomers) [Compound 9, 5-oxo-N-(1-(pyrazolo[1,5-a]pyridin-3-yl)ethyl)-1-(pyridin-3-yl) pyrrolidine-3-carboxamide] the “SUMO E1 activity (luminescence)” value (SUMO E1 ligase protein) was “largest effects; also recorded: highest” and the “dose-dependent effect in SUMO E1 assays compared with control compound N106” value (SUMO E1 ligase protein) was “larger effects than the control compound N106”.
In the case of `CC(NC(=O)C1CC(=O)N(c2cnc3ccccc3c2)C1)c1cnn2ccccc12` (mixture of isomers) [Compound 11, 5-oxo-N-(1-(pyrazolo[1,5-a]pyridin-3-yl)ethyl)-1-(quinolin-3-yl) pyrrolidine-3-carboxamide], the “SUMO E1 activity (luminescence)” value (SUMO E1 ligase protein) is reported as “largest effects; also recorded: highest”.
With `C[C@@H](NC(=O)[C@@H]1CC(=O)N(c2ccc(C(=O)c3ccccc3)cc2)C1)c1cnn2ccccc12` [Compound 6-1, 1-(4-benzoylphenyl)-(R)-5-oxo-N—((R)-1-(pyrazolo[1,5-a]pyridin-3-yl)ethyl) pyrrolidine-3-carboxamide] the “concentration at which the increase in developed force peaked” value ([1]; matured hvCTS) was 1 µM, the “contractility (overall conclusion)” value ([1]; matured hvCTS) was “improved” and the “effect on contraction time” value ([1]; matured hvCTS) was “did not show any significant difference”. For the same compound, the “effect on passive tension” value ([1]; matured hvCTS) was “did not show any significant difference”, the “effect on developed force” value [1] was “positive inotropic effects; also recorded: concentration-dependent increase” and the “effect on relaxation time” value ([1]; matured hvCTS) was “did not show any significant difference”.
With `C[C@H](NC(=O)[C@H]1CC(=O)N(c2ccc(C(=O)c3ccccc3)cc2)C1)c1cnn2ccccc12` [Compound 6-2, 1-(4-benzoylphenyl)-(S)-5-oxo-N—((S)-1-(pyrazolo[1,5-a]pyridin-3-yl)ethyl) pyrrolidine-3-carboxamide] the “concentration at which the increase in developed force peaked” value ([1]; matured hvCTS) was 1 µM, the “contractility (overall conclusion)” value ([1]; matured hvCTS) was “improved” and the “effect on contraction time” value ([1]; matured hvCTS) was “did not show any significant difference”. The “effect on passive tension” value ([1]; matured hvCTS) was “did not show any significant difference”, the “effect on developed force” value [1] was “positive inotropic effects; also recorded: concentration-dependent increase” and the “effect on relaxation time” value ([1]; matured hvCTS) was “did not show any significant difference”.
For `C[C@@H](NC(=O)[C@@H]1CC(=O)N(c2cccnc2)C1)c1cnn2ccccc12` [Compound 9-1, (R)-5-oxo-N—((R)-1-(pyrazolo[1,5-a]pyridin-3-yl)ethyl)-1-(pyridin-3-yl) pyrrolidine-3-carboxamide], the “effect on relaxation time” value ([1]; matured hvCTS) was “decrease in relaxation time that was dose dependent”.
For `C[C@H](NC(=O)[C@H]1CC(=O)N(c2cccnc2)C1)c1cnn2ccccc12` [Compound 9-2, (S)-5-oxo-N—((S)-1-(pyrazolo[1,5-a]pyridin-3-yl)ethyl)-1-(pyridin-3-yl) pyrrolidine-3-carboxamide], the “effect on relaxation time” value ([1]; matured hvCTS) was “decrease in relaxation time that was dose dependent”.
In the case of `C[C@H](NC(=O)[C@@H]1CC(=O)N(c2cccnc2)C1)c1cnn2ccccc12` [Compound 9-3, (R)-5-oxo-N—((S)-1-(pyrazolo[1,5-a]pyridin-3-yl)ethyl)-1-(pyridin-3-yl) pyrrolidine-3-carboxamide], the “contractile kinetics (overall conclusion)” value ([1]; matured hvCTS) is reported as “improved”, the “effect on relaxation time” value ([1]; matured hvCTS) is reported as “decrease in relaxation time that was dose dependent” and the “decrease in relaxation time” value ([1]; matured hvCTS, at 10 μM) is reported as 15%.
With `C[C@@H](NC(=O)[C@H]1CC(=O)N(c2cccnc2)C1)c1cnn2ccccc12` [Compound 9-4, (S)-5-oxo-N—((R)-1-(pyrazolo[1,5-a]pyridin-3-yl)ethyl)-1-(pyridin-3-yl) pyrrolidine-3-carboxamide] the inhibition at 1 µM ([1]; Homo sapiens, 10 min, matured hvCTS, at 1 μM, read-out: maximum decrease in developed force) was 10%, the “effect on developed force” value [1] was “small but significant dose-dependent decrease” and the “effect on relaxation time” value ([1]; matured hvCTS) was “decrease in relaxation time that was dose dependent”.
In the case of `COc1ccc(-c2nnc(Nc3nc4c(OC)cccc4s3)o2)cc1` [Compound N106, N-(4-methoxybenzo[d]thiazol-2-yl)-5-(4-methoxyphenyl)-1,3,4-oxadiazol-2-amine], the half-life in vivo [2] is given as “too short”.

— patent publication US20260284019A1, “CARBOXAMIDE COMPOUNDS AS SUMO ACTIVATING COMPOUNDS FOR TREATMENT OF CARDIOVASCULAR DISEASES” (NOVOHEART INTERNATIONAL LIMITED, priority 2023, published 2026)
